Laboratory results from US9102919B2, “WNT pathway stimulation in reprogramming somatic cells with nuclear reprogramming factors” (Whitehead Institute for Biomedical Research, priority 2007, dated 2015).

What was measured:
Cdk-1/cyclin B = Cdk-1/cyclin B (Homo sapiens, UniProt P06493); details: at >100 μM; cited from earlier work
PKA = details: at >100 μM; cited from earlier work
PKC = details: at >100 μM; cited from earlier work
CK-II = details: at >100 μM; cited from earlier work
histone deacetylase = details: cited from earlier work
[1] = system: MEFs over-expressing Oct4/Sox2/Klf4; experiment: G418-resistant colony formation in three-factor (Myc[-]) MEFs; type: cell-based, mouse; details: 4 μM; three factors in Wnt3a-CM; G418 day 15; scored day 28
Experimental: Cell culture, viral infections, induction of gene expression. Cells were cultured in 15% FBS, DMEM-KO, Penn/Step, Glutamine, Nonessential amino acids, β-ME, and LIF. Mouse embryo fibroblasts (MEFs) with an Oct4-IRES-eGFP construct (Meissner, A., et al., Nature Biotechnology, Direct reprogramming of genetically unmodified fibroblasts into pluripotent stem cells. Published online: 27 Aug. 2007|doi:10.1038/nbt1335) inserted into the endogenous Oct4 locus were infected with lentiviral vectors driving the doxycycline-inducible expression of Oct4, Sox2, Klf4 and c-Myc or only Oct4, Sox2, and Klf4. The vectors were based on the FUGW lentiviral vector backbone (Lois C, et al., Science 2002; 295: 868-872.), modified to include a tet-inducible promoter. Two days following infection cells were split and induced with doxycycline in the presence or absence of Wnt3a conditioned media (used in a 1:1 dilution with normal ES media with 2×LIF). These cells were monitored for GFP expression by flow cytometry at day 13 and again at day 20. […] Following at least one week of G418 selection, resistant colonies were examined and counted. […]
We hypothesized that stimulation of the stimulation of the Wnt pathway using soluble factors could modulate the efficiency of inducing pluripotency in somatic cells. […] GFP expression was analyzed by FACS on day 13 and 20. […]

[2] = system: MEFs overexpressing Oct4/Sox2/Klf4/c-Myc; experiment: G418-resistant colony formation in four-factor MEFs; type: cell-based, mouse
Experimental: Cell culture, viral infections, induction of gene expression. Cells were cultured in 15% FBS, DMEM-KO, Penn/Step, Glutamine, Nonessential amino acids, β-ME, and LIF. Mouse embryo fibroblasts (MEFs) with an Oct4-IRES-eGFP construct (Meissner, A., et al., Nature Biotechnology, Direct reprogramming of genetically unmodified fibroblasts into pluripotent stem cells. Published online: 27 Aug. 2007|doi:10.1038/nbt1335) inserted into the endogenous Oct4 locus were infected with lentiviral vectors driving the doxycycline-inducible expression of Oct4, Sox2, Klf4 and c-Myc or only Oct4, Sox2, and Klf4. The vectors were based on the FUGW lentiviral vector backbone (Lois C, et al., Science 2002; 295: 868-872.), modified to include a tet-inducible promoter. Two days following infection cells were split and induced with doxycycline in the presence or absence of Wnt3a conditioned media (used in a 1:1 dilution with normal ES media with 2×LIF). These cells were monitored for GFP expression by flow cytometry at day 13 and again at day 20. In parallel, MEFs with doxycycline-inducible Oct4 expressed from the collagen locus and Oct4-IRES-(neo resistance) inserted into the endogenous Oct4 locus were infected with lentiviruses driving the overexpression of either Sox2, Klf4 and c-Myc or Sox2 and Klf4. Again, two days following infection cells were split and induced with doxycycline in the presence or absence of Wnt3a conditioned media. […] Following at least one week of G418 selection, resistant colonies were examined and counted.
Conditioned medium. Wnt 3a conditioned media (CM) was collected from mouse L cells that had been transfected with Wnt3a cDNA (Shibamoto et al. 1998). These cells are available through ATCC(CRL-2647) along with the untransfected parent cell line (CRL-2648) to use for control conditioned medium. […]
We hypothesized that stimulation of the stimulation of the Wnt pathway using soluble factors could modulate the efficiency of inducing pluripotency in somatic cells. […] GFP expression was analyzed by FACS on day 13 and 20. […] Surviving colonies were counted on day 20. […]

26 other kinases = details: cited from earlier work
GSK3 = details: cited from earlier work

Chain of Cdk-1/cyclin B (P06493 whole entry, species assumed): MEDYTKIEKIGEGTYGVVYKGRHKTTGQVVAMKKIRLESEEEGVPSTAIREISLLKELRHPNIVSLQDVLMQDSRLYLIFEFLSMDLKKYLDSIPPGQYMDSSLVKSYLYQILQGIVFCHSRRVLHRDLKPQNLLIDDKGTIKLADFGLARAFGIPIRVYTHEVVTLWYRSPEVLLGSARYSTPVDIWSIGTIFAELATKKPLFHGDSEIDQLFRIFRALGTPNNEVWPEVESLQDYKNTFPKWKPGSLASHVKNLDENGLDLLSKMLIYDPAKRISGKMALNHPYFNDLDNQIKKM
Chain of Cdk-1/cyclin B (P14635 whole entry partner, species assumed): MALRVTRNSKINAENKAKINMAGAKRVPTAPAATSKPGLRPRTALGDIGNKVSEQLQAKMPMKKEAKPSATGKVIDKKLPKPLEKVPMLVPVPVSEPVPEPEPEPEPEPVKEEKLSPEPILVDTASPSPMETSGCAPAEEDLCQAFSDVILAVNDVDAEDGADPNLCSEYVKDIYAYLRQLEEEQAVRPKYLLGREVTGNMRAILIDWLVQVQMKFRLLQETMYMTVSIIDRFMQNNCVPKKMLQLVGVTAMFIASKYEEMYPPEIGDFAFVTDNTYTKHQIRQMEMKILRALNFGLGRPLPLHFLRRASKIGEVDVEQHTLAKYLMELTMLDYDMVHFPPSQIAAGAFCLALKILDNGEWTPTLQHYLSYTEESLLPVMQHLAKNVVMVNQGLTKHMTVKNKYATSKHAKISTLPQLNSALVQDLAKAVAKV

Cn1sc(=O)n(Cc2ccccc2)c1=O [TDZD-8, 4-Benzyl-2-methyl-1,2,4-thiadiazolidine-3,5-dione]
inhibition (Cdk-1/cyclin B): does not inhibit
inhibition (PKA): does not inhibit
inhibition (PKC): does not inhibit
inhibition (CK-II): does not inhibit

CC(/C=C/C(=O)NO)=C\[C@@H](C)C(=O)c1ccc(N(C)C)cc1 [Trichostatin A, [R-(E,E)]-7-[4-(Dimethylamino)phenyl]-N-hydroxy-4,6-dimethyl-7-oxo-2,4-heptadienamide]
inhibition of histone deacetylase (histone deacetylase): inhibits histone deacetylase at nanomolar concentrations

O=C1[C@H](Cc2ccc(O)cc2)N2C(=O)CCN(C(=O)NCc3ccccc3)[C@H]2CN1Cc1cccc2ccccc12 [ICG-001]
effect on Wnt3a-CM promoted Myc[-] iPS formation [1]: strongly inhibited
effect on number of G418 colonies in c-Myc transduced cells ([2]; 4 μM, four factors in Wnt3a-CM, selection day 10, assessed day 20): only a subtle effect
iPS colonies ([2]; 25 μM, four factors (data not shown)): multiple Oct4/Sox2/Klf4/c-Myc iPS colonies were observed
iPS colony numbers ([2]; higher doses than 4 μM, four factors (data not shown)): further reduced

COc1ccc(CNC(=O)Nc2ncc([N+](=O)[O-])s2)cc1 [AR-A014418, N-(4-Methoxybenzyl)-N′-(5-nitro-1,3-thiazol-2-yl)urea]
inhibition of other kinases (26 other kinases): does not significantly inhibit
